# Results: article PMC9127750, “Structure-based design of CDC42 effector interaction inhibitors for the treatment of cancer” (Cell reports, 2022)
# How the values were obtained:
# [1] = test system: PAK phosphorylation; assay: Immunoblotting pPAK; type: cell-based, Human; conditions: melanoma cells (WM3248, SKMEL3), 6 h
# Description: (§1) […]. ImageJ was used to perform densitometry.
# [2] = In vitro microsomal stability assay; type: in vitro ADME; conditions: pH 7.4; human liver microsomes; read-out: half-life after incubation with human microsomes
# Description: 10 mM DMSO stock solution of each compound was pre-incubated at 37°C for 15 min with liver microsomes from all the three species (mouse, rat, human) in 0.1M Tris-HCl buffer (pH 7.4). The final concentration was 4.6 μM. After pre-incubation, the co-factors (NADPH, G6P, G6PDH and MgCl2 pre-dissolved in 0.1M Tris-HCl) were added to the mixture and the incubation was continued at 37°C for 1 h. […] The supernatant was then further diluted with H2O (1:1) for analysis. […] The percentage of test compound remaining at each time point relative to the amount observed at t = 0 was calculated. The half-lives (t½) were determined by a one-phase decay equation using a non-linear regression of compound concentration versus time.
# [3] = test system: RELB protein level; assay: Immunoblotting RELB; type: cell-based, Human; conditions: WM3248, 24 h, versus untreated cells
# Description: as §1
compound,measurement,setting,value
"CN(C)c1cccc(Nc2cc(-c3ccccc3)nc(C3CCNCC3)n2)c1 [ARN22089, N1,N1-dimethyl-N3-(6-phenyl-2-(piperidin-4-yl)pyrimidin-4-yl)benzene-1,3-diamine]",PAK phosphorylation (immunoblot),[1],inhibitory effect
same,half-life at […],[2],8.5 h
same,RELB protein level (immunoblot),[3],increased
